Laboratory results as given in patent US10266577B2, “GLP-1 derivatives, and uses thereof” (Novo Nordisk A/S, priority 2013, dated 2019).
Numbered stars: 1 amine (or outer) side, 2 acyl side, 3 side chain; on linkers, the order of the positions; unused ones are H or OH. Bridge positions count the residues as written; N and C are the ends. Square brackets hold non-standard residues; d marks the D form. Side chains are listed from the residue outwards. Ends that are not written are not given here. Peptide text beside a SMILES is read from it. I, II: the chains in the order shown. * marks the point of attachment. C18 diacid = O=C(O)CCCCCCCCCCCCCCCCC(=O)*; γGlu = O=C(O)[C@H](CCC(=O)[*:2])N[*:1]; εLys = N[C@@H](CCCCN[*:1])C(=O)[*:2]; AEEA = NCCOCCOCC(=O)O; Aib = CC(C)(N)C(=O)O

Experiments:
[1] = in vivo; conditions: male, Göttingen, minipig, iv
Procedure: The purpose of this study is to determine the protraction in vivo of the GLP-1 derivatives after i.v. administration to minipigs, i.e. the prolongation of their time in the body and thereby their time of action. This is done in a pharmacokinetic (PK) study, where the terminal half-life of the derivative in question is determined. By terminal half-life is meant the time it takes to halve a certain plasma concentration in the terminal elimination phase.
Male Göttingen minipigs were obtained from Ellegaard Göttingen Minipigs (Dalmose, Denmark) approximately 7-14 months of age and weighing approximately 16-35 kg were used in the studies. The minipigs were housed either individually (pigs with permanent catheters) or in a group and fed restrictedly once or twice daily with SDS minipig diet (Special Diets Services, Essex, UK).
After at least 2 weeks of acclimatisation two permanent central venous catheters were implanted in vena cava caudalis or cranialis in each animal. The animals were allowed 1 week recovery after the surgery, and were then used for repeated pharmacokinetic studies with a suitable wash-out period between successive GLP-1 derivative dosings.
Blood samples (for example 0.8 ml) were collected in EDTA buffer (8 mM) and then centrifuged at 4° C. and 1942G for 10 minutes.
Plasma was pipetted into Micronic tubes on dry ice, and kept at −20° C. until analysed for plasma concentration of the respective GLP-1 compound using LOCI. Individual plasma concentration-time profiles were analyzed by a non-compartmental pharmacokinetic method in Phoenix v. 6.2 (Pharsight Inc., Mountain View, Calif., USA), or other relevant software for PK analysis, and the resulting terminal half-lives (harmonic mean) determined.

[2] = target: T1, human GLP-1 receptor (Homo sapiens, UniProt P43220); test: GLP-1 receptor binding: competitive binding assay (125I-GLP-1, SPA) on isolated membranes at low and high HSA; conditions: displacement of 125I-GLP-1; for Low HSA IC50: Low HSA IC50, low serum albumin (max. 0.001% final assay concentration); for IC50: high serum albumin (2.0% HSA final assay concentration)
T1 construct: expressed in transfected cells; host or cells: BHK cells (parent line BHKTS13), clone FCW467-12A; membrane preparation
Procedure: The purpose of this example is to test the receptor binding of the GLP-1 derivatives in vitro. The receptor binding is a measure of affinity of a derivative for the human GLP-1 receptor.
In this type of assay a labelled ligand (in this case ^125I-GLP-1) is bound to the receptor. Each derivative is added in a series of concentrations to isolated membranes containing the human GLP-1 receptor and displacement of the labelled ligand is monitored. The receptor binding is reported as the concentration at which half of the labelled ligand is displaced from the receptor, the IC50 value.
The following chemicals were used in the assay: Human serum albumin (HSA) (Sigma A1653), DMEM w/o phenol red (Gibco 11880-028), Pen/strep (Invitrogen 15140-122), G418 (Invitrogen 10131-027), 1 M Hepes (Gibco 15630), EDTA (Invitrogen 15575-038), PBS (Invitrogen 14190-094), fetal calf serum (Invitrogen 16140-071), EGTA, MgCl2 (Merck 1.05832.1000), Tween 20 (Amresco 0850C335), SPA particles (wheat germ agglutinin (WGA) SPA beads, Perkin Elmer RPNQ0001), [^125I]-GLP-1]-(7-36)NH2 (produced in-house), OptiPlate™-96 (Packard 6005290).
Buffer 1 consisted of 20 mM Na-HEPES plus 10 mM EDTA and pH was adjusted to 7.4. Buffer 2 consisted of 20 mM Na-HEPES plus 0.1 mM EDTA and pH was adjusted to 7.4. Assay buffer consisted of 50 mM HEPES supplemented with 5 mM EGTA, 5 mM MgCl2, 0.005% Tween 20 and pH was adjusted to 7.4. An 8% albumin stock consisted of HSA dissolved at 8% (w/v) in assay buffer. An 0.02% albumin stock consisted of HSA dissolved at 0.02% (w/v) in assay buffer.
The cells express the human GLP-1 receptor.
The cells were grown at 5% CO2 in DMEM, 10% fetal calf serum, 1% Pen/Strep (Penicillin/Streptomycin) and 1.0 mg/ml of the selection marker G418.
To make a membrane preparation the cells were grown to approximately 80% confluence. The cells were washed twice in phosphate-buffered saline and harvested. The cells were pelleted using a brief centrifugation and the cell pellet was kept on ice. The cell pellet was homogenised with ULTRA-THURRAX™ dispersing instrument for 20-30 seconds in a suitable amount of buffer 1 (e.g., 10 ml). The homogenate was centrifuged for 15 minutes. The pellet was re-suspended (homogenised) in 10 ml buffer 2 and centrifuged. This step was repeated once more. The resulting pellet was re-suspended in buffer 2 and the protein concentration was determined. The membranes were aliquoted and stored at minus 80° C.
For the receptor binding assay in the presence of low HSA (0.005%) 50 μl of the assay buffer was added to each well of an assay plate. Assay continued with step 3.
For the receptor binding assay in the presence of high HSA (2%) 50 μl of the 8% albumin stock was added to each well of an assay plate. Assay continued with step 3.
Cell membrane aliquots were thawed and diluted to their working concentration. Fifty μl were added to each well in the assay plate.
WGA SPA beads were suspended in assay buffer at 20 mg/ml. The suspension was diluted to 10 mg/ml in assay buffer just prior to addition to the assay plate. Fifty μl were added to each well in the assay plate.
The incubation was started by adding 25 μl of 480 pM solution of [^125I]-GLP-1]-(7-36)NH2 to each well of the assay plate. A 25 μl aliquot was reserved for measuring total counts/well.
The assay plate was incubated for 2 h at 30° C.
The assay plate was centrifuged for 10 min.
The assay plate was read in a Packard TopCount NXT instrument.
The data from the TopCount instrument were transferred to GraphPad Prism software. The software averaged the values for the replicates and performed a non-linear regression. IC50 values were calculated by the software and reported in nM.

[3] = target: T1, human GLP-1 receptor; test: In vitro potency: CRE luciferase reporter gene assay in BHK cells expressing the human GLP-1 receptor; assay type: cell-based; conditions: whole cell reporter gene assay, BHK clone FCW467-12A/KZ10-1; averages of at least two replicates
Procedure: The purpose of this example is to test the activity, or potency, of the GLP-1 derivatives in vitro. The in vitro potency is the measure of human GLP-1 receptor activation in a whole cell assay.
In vitro potency was determined by measuring the response of the human GLP-1 receptor in a reporter gene assay. The assay was performed in a stably transfected BHK cell line that expresses the human GLP-1 receptor and contains the DNA for the cAMP response element (CRE) coupled to a promoter and the gene for firefly luciferase (CRE luciferase). When the human GLP-1 receptor is activated it results in the production of cAMP, which in turn results in the luciferase protein being expressed. When assay incubation is completed the luciferase substrate (luciferin) is added and the enzyme converts luciferin to oxyluciferin to produce bioluminescence. The luminescence is measured as the readout for the assay.
The cells were cultured at 5% CO2 in Cell Culture Medium. They were aliquoted and stored in liquid nitrogen. Before each assay an aliquot is taken up and washed twice in PBS before being suspended at the desired concentration in the assay specific buffer. For 96-well plates the suspension was made to give a final concentration of 5×10^3 cells/well.
The following chemicals were used in the assay: Pluronic F-68 (10%) (Gibco 2404), human serum albumin (HSA) (Sigma A9511), ovalbumin (Sigma A5503), DMEM w/o phenol red (Gibco 11880-028), 1 M Hepes (Gibco 15630), Glutamax 100× (Gibco 35050) and steadylite plus (PerkinElmer 6016757).
Cell Culture Medium consisted of DMEM medium with 10% FBS (Fetal Bovine Serum; Invitrogen 16140-071), 1 mg/ml G418 (Invitrogen 15140-122), 240 nM MTX (methotrexate; Sigma M9929) and 1% pen/strep (penicillin/streptomycin; Invitrogen 15140-122).
Assay Medium consisted of DMEM w/o phenol red, 10 mM Hepes and 1× Glutamax. The Assay Buffer consisted of 2% ovalbumin and 0.2% Pluronic F-68 in Assay Medium.
1) Cell stocks were thawed in a 37° C. water bath.
2) Cells were washed three times in PBS.
3) The cells were counted and adjusted to 5×10^3 cells/50 μl (1×10^5 cells/ml) in Assay Medium. A 50 μl aliquot of cells was transferred to each well in the assay plate.
4) Stocks of the test compounds and reference compounds were diluted to a concentration of 0.2 pM in Assay Buffer. […] Compounds were tested at the following final concentrations: 1×10^−7 M, 1×10^−8 M; 1×10^−9 M, 1×10^−10 M, 1×10^−11 M, 1×10^−12 M, 1×10^−13 M, and 1×10^−14 M. 6) The assay plate was incubated for 3 h in a 5% CO2 incubator at 37° C. 7) The assay plate was removed from the incubator and allowed to stand at room temperature for 15 min. 8) A 100 μl aliquot of steadylite plus reagent was added to each well of the assay plate (reagent was light sensitive). 9) Each assay plate was covered with aluminum foil to protect it from light and shaken for 30 min at room temperature. 10) Each assay plate was read in a Packard TopCount NXT instrument. Calculations and Results
The data from the TopCount instrument were transferred to GraphPad Prism software. The software performs a non-linear regression (log(agonist) vs response).
A minimum of two replicates was measured for each sample. The reported values are averages of the replicates.

T1 sequence (P43220 24-463): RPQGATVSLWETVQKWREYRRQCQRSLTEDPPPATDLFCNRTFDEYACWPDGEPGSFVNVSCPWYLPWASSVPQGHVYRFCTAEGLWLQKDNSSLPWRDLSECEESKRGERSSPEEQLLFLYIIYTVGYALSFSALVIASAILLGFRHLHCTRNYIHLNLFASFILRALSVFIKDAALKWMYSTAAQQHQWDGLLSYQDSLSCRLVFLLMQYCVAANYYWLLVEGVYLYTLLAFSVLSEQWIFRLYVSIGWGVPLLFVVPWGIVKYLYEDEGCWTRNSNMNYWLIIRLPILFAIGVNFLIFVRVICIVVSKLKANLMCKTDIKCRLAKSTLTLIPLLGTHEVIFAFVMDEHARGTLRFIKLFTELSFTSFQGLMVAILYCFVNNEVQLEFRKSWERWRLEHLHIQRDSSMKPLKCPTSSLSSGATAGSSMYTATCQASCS

Compound	half-life [1] [h]	Low HSA IC50 [2] [nM]	IC50 [2] [nM]	EC50 [3] [nM]
CC[C@H](C)[C@H](NC(=O)[C@H](Cc1ccccc1)NC(=O)[C@H](CCCCNC(=O)[C@@H](N)CCCCNC(=O)COCCOCCNC(=O)COCCOCCNC(=O)CC[C@H](NC(=O)CCCCCCCCCCCCCCCCC(=O)O)C(=O)O)NC(=O)[C@H](CCCNC(=N)N)NC(=O)[C@H](C)NC(=O)[C@H](C)NC(=O)[C@H](CCC(N)=O)NC(=O)[C@H](CCC(=O)O)NC(=O)[C@H](CCC(=O)O)NC(=O)[C@H](CC(C)C)NC(=O)[C@H](Cc1ccc(O)cc1)NC(=O)[C@H](CCCCNC(=O)[C@@H](N)CCCCNC(=O)COCCOCCNC(=O)COCCOCCNC(=O)CC[C@H](NC(=O)CCCCCCCCCCCCCCCCC(=O)O)C(=O)O)NC(=O)[C@H](CO)NC(=O)[C@@H](NC(=O)[C@H](CC(=O)O)NC(=O)[C@H](CO)NC(=O)[C@@H](NC(=O)[C@H](Cc1ccccc1)NC(=O)[C@@H](NC(=O)CNC(=O)[C@H](CCC(=O)O)NC(=O)C(C)(C)NC(=O)[C@@H](N)Cc1c[nH]cn1)[C@@H](C)O)[C@@H](C)O)C(C)C)C(=O)N[C@@H](C)C(=O)N[C@@H](Cc1c[nH]c2ccccc12)C(=O)N[C@@H](CC(C)C)C(=O)N[C@H](C(=O)N[C@@H](CCCNC(=N)N)C(=O)NCC(=O)N[C@@H](CCCNC(=N)N)C(=O)N[C@@H](CCCCNC(=O)[C@@H](N)CCCCNC(=O)COCCOCCNC(=O)COCCOCCNC(=O)CC[C@H](NC(=O)CCCCCCCCCCCCCCCCC(=O)O)C(=O)O)C(=O)O)C(C)C [Example 6] (H-H[Aib]EGTFTSDVSK([εLys-AEEA-AEEA-γGlu-C18 diacid])YLEEQAARK([εLys-AEEA-AEEA-γGlu-C18 diacid])FIAWLVRGRK([εLys-AEEA-AEEA-γGlu-C18 diacid])-OH; N-terminus and C-terminus assumed)	103	0.4	> 1000	
CC[C@H](C)[C@H](NC(=O)[C@H](Cc1ccccc1)NC(=O)[C@H](CCCCNC(=O)COCCOCCNC(=O)COCCOCCNC(=O)CC[C@H](NC(=O)CCCCCCCCCCCCCCCCC(=O)O)C(=O)O)NC(=O)[C@H](CCCNC(=N)N)NC(=O)[C@H](C)NC(=O)[C@H](C)NC(=O)[C@H](CCC(N)=O)NC(=O)[C@H](CCC(=O)O)NC(=O)[C@H](CCC(=O)O)NC(=O)[C@H](CC(C)C)NC(=O)[C@H](Cc1ccc(O)cc1)NC(=O)[C@H](CO)NC(=O)[C@H](CO)NC(=O)[C@@H](NC(=O)[C@H](CC(=O)O)NC(=O)[C@H](CO)NC(=O)[C@@H](NC(=O)[C@H](Cc1ccccc1)NC(=O)[C@@H](NC(=O)CNC(=O)[C@H](CCC(=O)O)NC(=O)C(C)(C)NC(=O)[C@@H](N)Cc1c[nH]cn1)[C@@H](C)O)[C@@H](C)O)C(C)C)C(=O)N[C@@H](CCCCNC(=O)COCCOCCNC(=O)COCCOCCNC(=O)CC[C@H](NC(=O)CCCCCCCCCCCCCCCCC(=O)O)C(=O)O)C(=O)N[C@@H](Cc1c[nH]c2ccccc12)C(=O)N[C@@H](CC(C)C)C(=O)N[C@H](C(=O)N[C@@H](CCCNC(=N)N)C(=O)NCC(=O)N[C@@H](CCCNC(=N)N)C(=O)N[C@@H](CCCCNC(=O)COCCOCCNC(=O)COCCOCCNC(=O)CC[C@H](NC(=O)CCCCCCCCCCCCCCCCC(=O)O)C(=O)O)C(=O)O)C(C)C [Example 10] (H-H[Aib]EGTFTSDVSSYLEEQAARK([AEEA-AEEA-γGlu-C18 diacid])FIK([AEEA-AEEA-γGlu-C18 diacid])WLVRGRK([AEEA-AEEA-γGlu-C18 diacid])-OH; N-terminus and C-terminus assumed)	158			0.026
CC[C@H](C)[C@H](NC(=O)[C@H](Cc1ccccc1)NC(=O)[C@H](CCC(=O)O)NC(=O)[C@H](CCCNC(=N)N)NC(=O)[C@H](C)NC(=O)[C@H](C)NC(=O)[C@H](CCC(N)=O)NC(=O)[C@H](CCCCNC(=O)COCCOCCNC(=O)COCCOCCNC(=O)[C@@H](N)CCCCNC(=O)CCCCCCCCCCCCCCCS(=O)(=O)O)NC(=O)[C@H](CCC(=O)O)NC(=O)[C@H](CC(C)C)NC(=O)[C@H](Cc1ccc(O)cc1)NC(=O)[C@H](CCCCNC(=O)COCCOCCNC(=O)COCCOCCNC(=O)[C@@H](N)CCCCNC(=O)CCCCCCCCCCCCCCCS(=O)(=O)O)NC(=O)[C@H](CO)NC(=O)[C@@H](NC(=O)[C@H](CC(=O)O)NC(=O)[C@H](CO)NC(=O)[C@@H](NC(=O)[C@H](Cc1ccccc1)NC(=O)[C@@H](NC(=O)CNC(=O)[C@H](CCC(=O)O)NC(=O)C(C)(C)NC(=O)[C@@H](N)Cc1c[nH]cn1)[C@@H](C)O)[C@@H](C)O)C(C)C)C(=O)N[C@@H](CCCCNC(=O)COCCOCCNC(=O)COCCOCCNC(=O)[C@@H](N)CCCCNC(=O)CCCCCCCCCCCCCCCS(=O)(=O)O)C(=O)N[C@@H](Cc1c[nH]c2ccccc12)C(=O)N[C@@H](CC(C)C)C(=O)N[C@H](C(=O)N[C@@H](CCCNC(=N)N)C(=O)NCC(=O)N[C@@H](CCCNC(=N)N)C(=O)NCC(=O)O)C(C)C [Example 13]				0.026
I: H[Aib]EGTFTSDVSKYLEGQAARKFIAWLVRGRK / II: {C18 diacid-γGlu}-SSSSSS / III: {C18 diacid-γGlu}-SSSSSS / IV: {C18 diacid-γGlu}-SSSSSS (amide I:12-III:C, I:21-II:C, I:31-IV:C) [Example 9]			> 1000	0.067

Continued, values first:

half-life [1] [h]	Low HSA IC50 [2] [nM]	IC50 [2] [nM]	EC50 [3] [nM]	Compound
140		100	0.018	CC[C@H](C)[C@H](NC(=O)[C@H](Cc1ccccc1)NC(=O)[C@H](CCC(=O)O)NC(=O)[C@H](CCCNC(=N)N)NC(=O)[C@H](C)NC(=O)[C@H](C)NC(=O)[C@H](CCC(N)=O)NC(=O)[C@H](CCCCNC(=O)COCCOCCNC(=O)COCCOCCNC(=O)[C@@H](N)CCCCNC(=O)[C@@H](N)CCCCNC(=O)CCCCCCCCCCCCCCCS(=O)(=O)O)NC(=O)[C@H](CCC(=O)O)NC(=O)[C@H](CC(C)C)NC(=O)[C@H](Cc1ccc(O)cc1)NC(=O)[C@H](CCCCNC(=O)COCCOCCNC(=O)COCCOCCNC(=O)[C@@H](N)CCCCNC(=O)[C@@H](N)CCCCNC(=O)CCCCCCCCCCCCCCCS(=O)(=O)O)NC(=O)[C@H](CO)NC(=O)[C@@H](NC(=O)[C@H](CC(=O)O)NC(=O)[C@H](CO)NC(=O)[C@@H](NC(=O)[C@H](Cc1ccccc1)NC(=O)[C@@H](NC(=O)CNC(=O)[C@H](CCC(=O)O)NC(=O)C(C)(C)NC(=O)[C@@H](N)Cc1c[nH]cn1)[C@@H](C)O)[C@@H](C)O)C(C)C)C(=O)N[C@@H](CCCCNC(=O)COCCOCCNC(=O)COCCOCCNC(=O)[C@@H](N)CCCCNC(=O)[C@@H](N)CCCCNC(=O)CCCCCCCCCCCCCCCS(=O)(=O)O)C(=O)N[C@@H](Cc1c[nH]c2ccccc12)C(=O)N[C@@H](CC(C)C)C(=O)N[C@H](C(=O)N[C@@H](CCCNC(=N)N)C(=O)NCC(=O)N[C@@H](CCCNC(=N)N)C(=O)NCC(=O)O)C(C)C [Example 14]
	0.4		0.014	CC[C@H](C)[C@H](NC(=O)[C@H](Cc1ccccc1)NC(=O)[C@H](CCC(=O)O)NC(=O)[C@H](CCCNC(=N)N)NC(=O)[C@H](C)NC(=O)[C@H](C)NC(=O)[C@H](CCC(N)=O)NC(=O)[C@H](CCCCNC(=O)COCCOCCNC(=O)COCCOCCNC(=O)COCCOCCNC(=O)COCCOCCNC(=O)COCCOCCNC(=O)[C@@H](N)CCCCNC(=O)[C@@H](N)CCCCNC(=O)CCCCCCCCCCCCCCCCC(=O)O)NC(=O)[C@H](CCC(=O)O)NC(=O)[C@H](CC(C)C)NC(=O)[C@H](Cc1ccc(O)cc1)NC(=O)[C@H](CCCCNC(=O)COCCOCCNC(=O)COCCOCCNC(=O)COCCOCCNC(=O)COCCOCCNC(=O)COCCOCCNC(=O)[C@@H](N)CCCCNC(=O)[C@@H](N)CCCCNC(=O)CCCCCCCCCCCCCCCCC(=O)O)NC(=O)[C@H](CO)NC(=O)[C@@H](NC(=O)[C@H](CC(=O)O)NC(=O)[C@H](CO)NC(=O)[C@@H](NC(=O)[C@H](Cc1ccccc1)NC(=O)[C@@H](NC(=O)CNC(=O)[C@H](CCC(=O)O)NC(=O)C(C)(C)NC(=O)[C@@H](N)Cc1c[nH]cn1)[C@@H](C)O)[C@@H](C)O)C(C)C)C(=O)N[C@@H](CCCCNC(=O)COCCOCCNC(=O)COCCOCCNC(=O)COCCOCCNC(=O)COCCOCCNC(=O)COCCOCCNC(=O)[C@@H](N)CCCCNC(=O)[C@@H](N)CCCCNC(=O)CCCCCCCCCCCCCCCCC(=O)O)C(=O)N[C@@H](Cc1c[nH]c2ccccc12)C(=O)N[C@@H](CC(C)C)C(=O)N[C@H](C(=O)N[C@@H](CCCNC(=N)N)C(=O)NCC(=O)N[C@@H](CCCNC(=N)N)C(=O)NCC(=O)O)C(C)C [Example 16]
143			0.018	CC[C@H](C)[C@H](NC(=O)[C@H](Cc1ccccc1)NC(=O)[C@H](CCC(=O)O)NC(=O)[C@H](CCCNC(=N)N)NC(=O)[C@H](C)NC(=O)[C@H](C)NC(=O)[C@H](CCC(N)=O)NC(=O)[C@H](CCCCNC(=O)COCCOCCNC(=O)COCCOCCNC(=O)COCCOCCNC(=O)COCCOCCNC(=O)COCCOCCNC(=O)[C@@H](N)CCCCNC(=O)[C@@H](N)CCCCNC(=O)[C@@H](N)CCCCNC(=O)CCCCCCCCCCCCCCCCC(=O)O)NC(=O)[C@H](CCC(=O)O)NC(=O)[C@H](CC(C)C)NC(=O)[C@H](Cc1ccc(O)cc1)NC(=O)[C@H](CCCCNC(=O)COCCOCCNC(=O)COCCOCCNC(=O)COCCOCCNC(=O)COCCOCCNC(=O)COCCOCCNC(=O)[C@@H](N)CCCCNC(=O)[C@@H](N)CCCCNC(=O)[C@@H](N)CCCCNC(=O)CCCCCCCCCCCCCCCCC(=O)O)NC(=O)[C@H](CO)NC(=O)[C@@H](NC(=O)[C@H](CC(=O)O)NC(=O)[C@H](CO)NC(=O)[C@@H](NC(=O)[C@H](Cc1ccccc1)NC(=O)[C@@H](NC(=O)CNC(=O)[C@H](CCC(=O)O)NC(=O)C(C)(C)NC(=O)[C@@H](N)Cc1c[nH]cn1)[C@@H](C)O)[C@@H](C)O)C(C)C)C(=O)N[C@@H](CCCCNC(=O)COCCOCCNC(=O)COCCOCCNC(=O)COCCOCCNC(=O)COCCOCCNC(=O)COCCOCCNC(=O)[C@@H](N)CCCCNC(=O)[C@@H](N)CCCCNC(=O)[C@@H](N)CCCCNC(=O)CCCCCCCCCCCCCCCCC(=O)O)C(=O)N[C@@H](Cc1c[nH]c2ccccc12)C(=O)N[C@@H](CC(C)C)C(=O)N[C@H](C(=O)N[C@@H](CCCNC(=N)N)C(=O)NCC(=O)N[C@@H](CCCNC(=N)N)C(=O)NCC(=O)O)C(C)C [Example 17]
